Numbers after ± are expanded uncertainties.
Assay: excess molar enthalpy (molar enthalpy of mixing); xn = mol fraction of the nth substance listed
Conditions: 298.15 K, 100 kPa, Liquid, Flow calorimetry

| SMILES | excess molar enthalpy (x2 = 0.05) | excess molar enthalpy (x2 = 0.1) | excess molar enthalpy (x2 = 0.15) | excess molar enthalpy (x2 = 0.2) | excess molar enthalpy (x2 = 0.25) | excess molar enthalpy (x2 = 0.3) | excess molar enthalpy (x2 = 0.35) | excess molar enthalpy (x2 = 0.4) | excess molar enthalpy (x2 = 0.45) | excess molar enthalpy (x2 = 0.5) | excess molar enthalpy (x2 = 0.6) | excess molar enthalpy (x2 = 0.65) | excess molar enthalpy (x2 = 0.7) | excess molar enthalpy (x2 = 0.75) | excess molar enthalpy (x2 = 0.8) | excess molar enthalpy (x2 = 0.85) | excess molar enthalpy (x2 = 0.9) | excess molar enthalpy (x2 = 0.95) | also measured |
| --- | --- | --- | --- | --- | --- | --- | --- | --- | --- | --- | --- | --- | --- | --- | --- | --- | --- | --- | --- |
| CCOC(C)=O [ethyl acetate] + CCO | 0.0712 ± 0.00359 kcal/mol | 0.135 ± 0.00693 kcal/mol | 0.185 ± 0.00932 kcal/mol | 0.222 ± 0.0112 kcal/mol | 0.25 ± 0.0127 kcal/mol | 0.27 ± 0.0136 kcal/mol | 0.283 ± 0.0143 kcal/mol | 0.291 ± 0.0148 kcal/mol | 0.293 ± 0.0148 kcal/mol | 0.289 ± 0.0146 kcal/mol | 0.276 ± 0.0139 kcal/mol | 0.262 ± 0.0131 kcal/mol | 0.234 ± 0.0117 kcal/mol | 0.205 ± 0.0103 kcal/mol | 0.174 ± 0.00884 kcal/mol | 0.138 ± 0.00693 kcal/mol | 0.1 ± 0.00502 kcal/mol | 0.0554 ± 0.00287 kcal/mol | excess molar enthalpy (x2 = 0.55): 0.284 ± 0.0143 kcal/mol |
| CC(=O)OC(C)=O [ethanoic anhydride] + CC(=O)O |  |  |  |  |  |  |  |  |  |  |  |  |  |  |  |  |  |  | excess molar enthalpy (x1 = 0.05): 0.0108 ± 0.000717 kcal/mol; excess molar enthalpy (x1 = 0.1): 0.0213 ± 0.0012 kcal/mol; excess molar enthalpy (x1 = 0.15): 0.032 ± 0.00167 kcal/mol; excess molar enthalpy (x1 = 0.2): 0.0423 ± 0.00215 kcal/mol; excess molar enthalpy (x1 = 0.25): 0.0519 ± 0.00263 kcal/mol; excess molar enthalpy (x1 = 0.3): 0.0607 ± 0.00311 kcal/mol; excess molar enthalpy (x1 = 0.35): 0.0688 ± 0.00359 kcal/mol; excess molar enthalpy (x1 = 0.4): 0.0758 ± 0.00382 kcal/mol; excess molar enthalpy (x1 = 0.45): 0.0813 ± 0.00406 kcal/mol; excess molar enthalpy (x1 = 0.5): 0.0851 ± 0.0043 kcal/mol; excess molar enthalpy (x1 = 0.55): 0.0875 ± 0.00454 kcal/mol; excess molar enthalpy (x1 = 0.6): 0.088 ± 0.00454 kcal/mol; excess molar enthalpy (x1 = 0.65): 0.0863 ± 0.0043 kcal/mol; excess molar enthalpy (x1 = 0.7): 0.0822 ± 0.00406 kcal/mol; excess molar enthalpy (x1 = 0.75): 0.0758 ± 0.00382 kcal/mol; excess molar enthalpy (x1 = 0.8): 0.0669 ± 0.00335 kcal/mol; excess molar enthalpy (x1 = 0.85): 0.055 ± 0.00287 kcal/mol; excess molar enthalpy (x1 = 0.9): 0.0402 ± 0.00215 kcal/mol; excess molar enthalpy (x1 = 0.95): 0.022 ± 0.0012 kcal/mol |
| CC(=O)OC(C)=O [ethanoic anhydride] + CCO | 0.0822 ± 0.00406 kcal/mol | 0.154 ± 0.00789 kcal/mol | 0.214 ± 0.0108 kcal/mol | 0.266 ± 0.0134 kcal/mol | 0.306 ± 0.0155 kcal/mol | 0.339 ± 0.0172 kcal/mol | 0.364 ± 0.0184 kcal/mol | 0.382 ± 0.0194 kcal/mol | 0.396 ± 0.0201 kcal/mol | 0.405 ± 0.0206 kcal/mol | 0.383 ± 0.0194 kcal/mol | 0.363 ± 0.0184 kcal/mol | 0.337 ± 0.017 kcal/mol | 0.306 ± 0.0155 kcal/mol | 0.268 ± 0.0136 kcal/mol | 0.221 ± 0.0112 kcal/mol | 0.164 ± 0.00837 kcal/mol | 0.0939 ± 0.00478 kcal/mol |  |
